Test results: PubChem BioAssay AID1996
Converted amounts (≈) assume the structure as drawn.

conditions: buffer; pH 7.4; 200.0 µM

Compared with CN1c2ccccc2C(=O)/C(=C\Nc2ccc(F)cc2F)S1(=O)=O, COc1ccc(-n2c(=S)[nH]c3sc(-c4ccccc4)cc3c2=O)c(OC)c1 is 1.7-fold higher in solubility kinetic: 1 µg/mL (≈ 2.85 µM) for the first, 1.7 µg/mL (≈ 4.29 µM) for the second.

Going from CCOC(=O)c1cc(S(=O)(=O)N2CCC(C)CC2)cn1C to CCOC(=O)N1CCN(C(=O)COC(=O)c2cc(Cl)cc(Cl)c2)CC1, the solubility kinetic rises from 5.2 µg/mL (≈ 16.5 µM) to 57.2 µg/mL (≈ 147 µM) (11-fold).

Compared with O=C(COc1ccccc1F)NCc1ccc(-n2cccc2)cc1, O=C(COC(=O)c1ccc2ccccc2c1O)NCc1ccccc1 is 2.7-fold higher in solubility kinetic: 1.1 µg/mL (≈ 3.39 µM) for the first, 3 µg/mL (≈ 8.95 µM) for the second.

First: CCCCN(C(=O)C1CC(=O)N(c2ccc3c(c2)OCCO3)C1)c1c(N)n(CCC)c(=O)[nH]c1=O (stereo not given)
Second: COCCN(C(=O)COC(=O)/C=C/c1cccc(C(F)(F)F)c1)c1c(N)n(CC(C)C)c(=O)[nH]c1=O
The solubility kinetic of the first is higher: greater than 72.8 µg/mL for the first, 5.7 µg/mL (≈ 11.1 µM) for the second.

Compared with CS(=O)(=O)N(CC(=O)NCc1cccnc1)C1CCCCC1, CN(C(=O)Nc1ccccc1)C1CCCCC1 is lower in solubility kinetic: greater than 48.8 µg/mL for the first, 8.6 µg/mL (≈ 37 µM) for the second.

First: O=C(NCc1ccccc1)c1cnc(Cl)c(Cl)c1
Second: Cc1cc(Cl)ccc1OCCCC(=O)NCc1ccccn1
The solubility kinetic of the first is lower: 35.9 µg/mL (≈ 128 µM) for the first, greater than 47.8 µg/mL for the second.

O=C(c1cc([N+](=O)[O-])ccc1N1CCCC1)N1CCCC1 and CN1CCCCCC1=Nc1ccc([N+](=O)[O-])cc1.Cl cannot be ordered by solubility kinetic: greater than 43.4 µg/mL for the first, greater than 42.6 µg/mL for the second.

Going from CC(C)NS(=O)(=O)c1ccc(OCC(=O)NC(C)c2ccccc2)cc1 (stereo not given) to CCC(C(=O)NC(C)c1ccccc1)C(=O)NC(C)c1ccccc1 (stereo not given), the solubility kinetic falls from 53.1 µg/mL (≈ 141 µM) to 6.8 µg/mL (≈ 20.1 µM) (7.8-fold).

Cc1cc(=O)oc(C)c1C(=O)Nc1cccnc1Cl and CCc1nc2ccccc2c(C(=O)Nc2cc(C)ccc2C)c1C cannot be ordered by solubility kinetic: greater than 41.8 µg/mL for the first, 45.6 µg/mL (≈ 143 µM) for the second.

Cn1cc(S(=O)(=O)NCCc2ccccc2)c(=O)n(C)c1=O and CCN(CC)CCNS(=O)(=O)c1ccc2c3c(cccc13)C(=O)N2 cannot be ordered by solubility kinetic: greater than 48.5 µg/mL for the first, greater than 52.1 µg/mL for the second.

CCN(CC)C(=O)Cn1c(=O)oc2ccccc21 and CCN(CC)c1ccc(NC(=O)c2c(C)noc2C)cc1 cannot be ordered by solubility kinetic: greater than 37.2 µg/mL for the first, greater than 43.1 µg/mL for the second.

CCOC(=O)C1(CCOC)CCN(Cc2ccncc2)CC1 and CCCC(=O)N1CCC(O)(c2cccc(F)c2)CC1 cannot be ordered by solubility kinetic: greater than 46 µg/mL for the first, greater than 39.8 µg/mL for the second.

Going from COc1ccc(CCNC(=O)C2CC2)cc1 to O=C(Cc1ccc(Cl)cc1)NCCc1cnc[nH]1, the solubility kinetic rises from 32.4 µg/mL (≈ 148 µM) to greater than 39.6 µg/mL.

First: NCCCS(=O)(=O)O.O.[Na+]
Second: COc1ccc(S(=O)(=O)NCCCn2ccnc2)cc1Cl
The solubility kinetic of the first is lower: 2.9 µg/mL for the first, greater than 49.5 µg/mL for the second.

Going from CCc1cc2c(=O)c(-c3nc(C)cs3)coc2cc1O to Cc1ccc(C(=O)NC(=S)Nc2ccc3[nH]c(=O)[nH]c3c2)c(C)c1, the solubility kinetic falls from 1.2 µg/mL (≈ 4.18 µM) to less than 0.2 µg/mL.

COc1ccc(N=CC2=C(O)CC(C)(C)CC2=O)cc1OC and COc1ccc(C(CCO)NC(=O)c2cccs2)cc1OC (stereo not given) cannot be ordered by solubility kinetic: greater than 45.5 µg/mL for the first, greater than 48.2 µg/mL for the second.

CCOC(=O)CNC(=O)N1CCCC(N(C)CCc2ccccc2)C1 (stereo not given) and CCOC(=O)C1CCCN(C(=O)CN2C(=O)c3ccccc3S2(=O)=O)C1 (stereo not given) cannot be ordered by solubility kinetic: greater than 52.1 µg/mL for the first, greater than 57.1 µg/mL for the second.

COc1ccccc1NC(=O)C(C)Sc1nccn1C (stereo not given) and Cc1ccc(C(=O)Nc2cccnc2N2CCN(C)CC2)cc1 cannot be ordered by solubility kinetic: greater than 43.7 µg/mL for the first, greater than 46.6 µg/mL for the second.

Going from CCC(C)[C@H](NC(=O)NC1CCCc2ccccc21)C(=O)OC (stereo not given in full) to CC1CCCCC12NC(=O)N(CC(=O)OCc1c(F)cccc1Cl)C2=O (stereo not given), the solubility kinetic rises from 22 µg/mL (≈ 69.1 µM) to 53.3 µg/mL (≈ 139 µM) (2.4-fold).

Going from COc1cccc(NC(=O)CN(C)CC(=O)NCc2ccc(F)cc2)c1 to CCOc1ccc(C(=O)CCC(=O)Nc2ccc(C)cn2)cc1, the solubility kinetic falls from greater than 53.9 µg/mL to 5.6 µg/mL (≈ 17.9 µM).

Cc1occc1C(=O)Nc1c(Cl)cccc1Cl and Cc1ccc(C(=O)N/N=C\c2cccnc2)s1 cannot be ordered by solubility kinetic: 37.1 µg/mL (≈ 137 µM) for the first, greater than 36.8 µg/mL for the second.

O=C(NN=C1CCCCCC1)c1ccncc1 and COc1ccc(/C=N/OCC(=O)N2CCCC2)c(OC)c1 cannot be ordered by solubility kinetic: greater than 34.7 µg/mL for the first, greater than 43.9 µg/mL for the second.

First: COCc1cc(C)nc(SCC(=O)Oc2ccc(Cl)cc2)c1C#N
Second: Cc1ccc(OCCNS(=O)(=O)c2ccc(Cl)cc2)cc1
The solubility kinetic of the first is 1.7-fold higher: 9.4 µg/mL (≈ 25.9 µM) for the first, 5.6 µg/mL (≈ 17.2 µM) for the second.

Going from C(=C\c1nc(-c2ccncc2)no1)/c1ccccc1 to O=C(O)c1ccccc1OCc1nc2ccccc2s1, the solubility kinetic falls from 3.4 µg/mL (≈ 13.6 µM) to less than 0.6 µg/mL.

Going from CCCn1c(=O)c(-c2nc3ccccc3[nH]2)c(O)c2ccccc21 to O=C1C(Cc2ccc3[nH]ccc3c2)NC(=S)N1c1ccccc1 (stereo not given), the solubility kinetic rises from 0.4 µg/mL (≈ 1.25 µM) to greater than 48.2 µg/mL.

Cc1ccsc1CNCC(O)c1ccccc1.Cl (stereo not given) and Cc1ccccc1SCC(=O)NCC(c1ccc(F)cc1)N1CCOCC1 (stereo not given) cannot be ordered by solubility kinetic: greater than 42.6 µg/mL for the first, greater than 58.3 µg/mL for the second.

Going from CCOC(=O)c1c(C)[nH]c(C)c1C(=O)COC(=O)c1cccs1 to CC1=C(C)/C(=N\OS(=O)(=O)c2ccc(C)cc2)C=CC1=O, the solubility kinetic falls from greater than 50.3 µg/mL to 3.5 µg/mL (≈ 11.5 µM).

First: CN1C(=O)CSC1=Nc1ccc(Br)cc1
Second: Cc1ccc(NCC(=O)Nc2ccc(Br)cc2)cc1C
The solubility kinetic of the first is 9-fold higher: 33.3 µg/mL (≈ 117 µM) for the first, 3.7 µg/mL (≈ 11.1 µM) for the second.

COc1ccc(/C=C2/NC(=O)CNC2=O)cc1 and COc1ccc(C(CNS(=O)(=O)c2cccc(F)c2)N2CCCC2)cc1.Cl (stereo not given) cannot be ordered by solubility kinetic: greater than 34.8 µg/mL for the first, greater than 62.2 µg/mL for the second.

First: Nc1nc(Nc2cccc(Cl)c2)nc(NCc2ccco2)c1[N+](=O)[O-]
Second: CC1CC(=O)Nc2cc([N+](=O)[O-])ccc2N1 (stereo not given)
The solubility kinetic of the first is lower: 3 µg/mL (≈ 8.32 µM) for the first, greater than 33.2 µg/mL for the second.
